In patent publication US10639372B2, “Nucleic acid, medical nanoparticle, and pharmaceutical composition thereof” (Chung Yuan Christian University, priority 2016, dated 2020):

What was measured:
[1] = test system: SCC4 cells; test: Cytotoxicity test (MTT test) on SCC4 cells; assay type: cell-based, human; conditions: SCC4 cells treated 48 hours, MTT survival rate
Experimental: (§1) The human oral cancer cells used in the Examples SCC4 and SAS are cultivated in a Dulbecco's Modified Eagle's medium (DMEM) cell culture having 10% fetal bovine serum (FBS). The cells are cultivated in an environment having 5% carbon dioxide in 37 degree Celsius. When enough cells are cultivated, the subsequent analysis and tests are performed.
(§2) The MTT reagent (namely, 3-(4,5-dimethylthiazol)-2,5-diphenyltetrazoliumbromide) is a yellow dye. After the MTT reagents are reacted with succinatedehydrogenase-ubiquinone (SDH) in the mitochondrion and cytochrome C, water insoluble blue-purple crystals are formed. After the crystals are dissolved in DMSO solution, the cell survival condition may be determined by the absorbance of the solution at 570 nm, so that the survival ratio of the cells can be calculated.
(§3) DMEM cell culture without serum are provided for preparing MTT solution having a concentration of 5 milligrams per milliliter. […]
(§4) The SCC4 or SAS cells are planted in a 48-well plate (each having 1×10^4 cells). […] And then, the absorbance of the supernatant at 570 nm can be obtained by an enzyme-linked immunosorbent assay (ELISA) reader (model: VersaMax™ Microplate Reader, Molecular devices, Sunnyvale, USA).

[2] = test system: SAS cells; test: Cytotoxicity test (MTT test) on SAS cells; assay type: cell-based, human; conditions: SAS cells treated 48 hours, MTT survival rate
Experimental: as §1, §2, §3, §4

Substance	IC50 for SCC4 cells [1]	IC50 for SAS cells [2]
photosan	2.4 microgram per milliliter	1.75 microgram per milliliter
pyropheophorbide-phosphatidic acid [pyro-PA]	0.8 microgram per milliliter	0.1 microgram per milliliter
